From publication PMC8774970 (Foods, 2022)
Marks after values point to notes of the source that are not given here.

How the values were obtained:
Reducing power test = settings: concentration at 0.50 absorbance
Experimental: (§1) All experiments were realized in 96-well microplates, and the absorbance measurements were carried out on a Multimode Plate Reader, EnSpire, PerkinElmer, Waltham (US) United States of America. […] The results were expressed as 50% inhibition (IC50) and absorbance at 0.5 (A0.5) concentrations that are able to inhibit/block/chelate 50% or reduce the absorbance to 0.5 of the radical, enzyme catalytic sites or the formation of metallic complexes/cations.
Later, 50 μL of TCA (trichloroacetic acid) (10%) and 10 μL of ferric chloride (0.1%) were added before finally measuring the mixture’s absorbance at 700 nm.

[1] = Cupric reducing antioxidant capacity (CUPRAC) assay; settings: concentration at 0.50 absorbance
Experimental: as §1
The method described by Reference was used with no modifications. […] The result was given as A0.5 value.

[2] = Hydroxyl radical scavenging assay
Experimental: as §1
It was evaluated according to the modified method of Smirnoff and Cumbes. […] The microplate was incubated for 30 min at 37 °C, and 36 μL H2O was added; immediately, the absorbance was measured at 510 nm. The result was given as IC50 value.

[3] = Galvinoxyl radical (GOR) scavenging assay
Experimental: as §1
The result was given as IC50 value.

O-Phenanthroline assay = settings: concentration at 0.50 absorbance
Experimental: as §1
Next, it was incubated for 20 min at 30 °C before measuring the absorbance at 510 nm. The result was given as A0.5 value.

[4] = Silver nanoparticle-based method (SNP)
Experimental: as §1
The reduction of Ag^+ to spherical silver nanoparticles (SNPs) was developed by Özyürek et al.. […] The microplate was incubated for 30 min at 25 °C, and the absorbance was read at 423 nm. […]

[5] = DPPH scavenging procedure
Experimental: as §1
Results were provided as IC50 values, and the I% were calculated using the above formula (*).

[6] = ABTS scavenging procedure
Experimental: as §1
The ABTS^•+ scavenging ability was performed spectrophotometrically according to the modified procedure of Re et al.. First, the ABTS^•+ was prepared as follows: 2 mM of ABTS was dissolved in H2O with 2.45 mM potassium persulfate (K2S2O8), and the mixture was conserved at ambient temperature for 16 h in obscurity. […] Thereafter, the microplate was incubated for 10 min before measuring the absorbance at 734 nm. The equation below (*) was used to calculate the inhibition percentage of ABTS radical, and results were presented as IC50 values. I% = ((Ac − As)/Ac) × 100 (*)(1)

[7] = β-Carotene/linoleic acid bleaching test
Experimental: as §1
Proceeding as described by Marco [23], with minor changes: 0.5 mg of β-carotene, 1 mL of chloroform, 25 μL of linoleic acid, and 200 μL of Tween 40 were added, forming an emulsified mixture. Then, it was evaporated under vacuum, and 50 mL of hydrogen peroxide (30%) were added with vigorous shaking. The absorbance at 470 nm should give a value between (0.8–0.9).

urease = target: T1, urease (Canavalia ensiformis, UniProt P07374); format: biochemical, Canavalia ensiformis (Jack bean)
T1 construct: purchased Sigma Aldrich
T1 sequence (P07374 whole entry, looked up): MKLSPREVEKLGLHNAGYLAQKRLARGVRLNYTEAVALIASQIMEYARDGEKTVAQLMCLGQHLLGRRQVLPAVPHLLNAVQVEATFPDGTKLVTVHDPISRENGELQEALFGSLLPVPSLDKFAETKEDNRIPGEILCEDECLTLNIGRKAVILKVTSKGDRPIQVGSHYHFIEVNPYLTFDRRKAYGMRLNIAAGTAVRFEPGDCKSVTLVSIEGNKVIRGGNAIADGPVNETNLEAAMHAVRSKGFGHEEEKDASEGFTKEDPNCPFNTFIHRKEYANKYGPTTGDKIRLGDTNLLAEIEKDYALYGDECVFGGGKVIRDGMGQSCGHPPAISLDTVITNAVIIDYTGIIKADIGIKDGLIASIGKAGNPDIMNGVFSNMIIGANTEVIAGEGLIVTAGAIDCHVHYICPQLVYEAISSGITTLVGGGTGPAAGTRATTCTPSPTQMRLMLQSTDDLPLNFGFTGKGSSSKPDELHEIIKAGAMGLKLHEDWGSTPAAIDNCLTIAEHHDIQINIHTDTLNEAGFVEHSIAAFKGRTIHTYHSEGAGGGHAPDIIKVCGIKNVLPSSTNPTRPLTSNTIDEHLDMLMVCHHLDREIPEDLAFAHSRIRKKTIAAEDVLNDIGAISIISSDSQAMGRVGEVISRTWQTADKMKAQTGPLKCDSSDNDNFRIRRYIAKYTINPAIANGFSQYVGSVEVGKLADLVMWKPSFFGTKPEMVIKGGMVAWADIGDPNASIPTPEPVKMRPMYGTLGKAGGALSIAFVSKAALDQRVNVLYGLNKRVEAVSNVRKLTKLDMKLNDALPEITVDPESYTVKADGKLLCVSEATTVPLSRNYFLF
Experimental: Ultrapure water was obtained by a Milli-Q system (Millipore, Bedford, MA, USA).
All experiments were realized in 96-well microplates, and the absorbance measurements were carried out on a Multimode Plate Reader, EnSpire, PerkinElmer, Waltham (US) United States of America. […] The EamCE solution was prepared at seven different concentrations, (800, 400, 200, 100, 50, 25, 12.5 µg/mL) and every assay was realized in triplicate. The results were expressed as 50% inhibition (IC50) and absorbance at 0.5 (A0.5) concentrations that are able to inhibit/block/chelate 50% or reduce the absorbance to 0.5 of the radical, enzyme catalytic sites or the formation of metallic complexes/cations.
Urease inhibitory capability was determined by measuring ammonia production using the indophenol method [35]. Briefly, the reaction mixture consisted of 25 μL of enzyme solution ((5 U/mL) (Jack bean urease)), 10 μL of the EamCE solution, and 50 μL of urea substrate solution, then it was incubated at 30 °C for 15 min. Then, 45 μL of phenol reagent (2 g of phenol (C6H5OH) in 25 mL H2O + 25 mg of Na2[Fe(CN)5NO],2H2O in 25 mL H2O) and 70 μL of basic reagent (0.7125 g of NaOH in 25 mL H2O + 1.175 mL of NaOCl in 25 mL H2O) were added later. After 50 min of incubation, the absorbance was measured at 630 nm, and result was given as IC50 value.

[8] = Superoxide alkaline DMSO test
Experimental: as §1
The superoxide radical was produced as described Kunchandy’s method: 30 µL of NBT (nitroblue tetrazolium) (1 mg/mL) and 40 μL of sample were added to 130 μL alkaline DMSO (1.0 mL DMSO, 5 mMNaOH, 100 µL H2O). The absorbance of the reaction mixture was measured at 560 nm, and results were provided as IC50 values.

Molecule | Reducing Power (A0.5) (Reducing power test) | CUPRAC (A0.5) [1] | Hydroxyl Radical (IC50) [2] | GOR (IC50) [3] | Phenonthroline (A0.5) (O-Phenanthroline assay) | SNP [4] | DPPH (IC50) [5] | ABTS (IC50) [6] | Beta Carotene (IC50) [7] | Anti-Urease IC50 (urease) | DMSO Alcalin (IC50) [8]
O=C1O[C@H]([C@@H](O)CO)C(O)=C1O [Ascorbic Acid] | 6.77 ± 1.15 ^c µg/mL | 8.31 ± 0.15 ^d µg/mL | 32.33 ± 1.17 ^b µg/mL | 5.02 ± 0.01 ^d µg/mL | 3.08 ± 0.02 ^d µg/mL | 7.14 ± 0.05 ^b µg/mL | – | – | – | – | –
COc1ccc(O)c(C(C)(C)C)c1 [BHA] | – | 5.35 ± 0.71 ^c µg/mL | – | 3.32 ± 0.18 ^c µg/mL | 0.93 ± 0.07 ^c µg/mL | – | 6.14 ± 0.41 ^c µg/mL | 1.81 ± 0.10 ^c µg/mL | 0.91 ± 0.01 ^c µg/mL | – | –
Cc1cc(C(C)(C)C)c(O)c(C(C)(C)C)c1 [BHT] | – | 8.97 ± 3.94 ^b µg/mL | – | 5.38 ± 0.06 ^b µg/mL | 2.24 ± 0.17 ^b µg/mL | – | 12.99 ± 0.41 ^b µg/mL | 1.29 ± 0.30 ^b µg/mL | 1.05 ± 0.03 ^b µg/mL | – | –
NC(N)=S [Thiourea] | – | – | – | – | – | – | – | – | – | 11.57 ± 0.68 ^b µg/mL | –
Cc1c(C)c2c(c(C)c1O)CCC(C)(C(=O)O)O2 (stereo not shown) [Trolox] | 5.25 ± 0.20 ^e µg/mL | 8.69 ± 0.14 ^e µg/mL | – | 4.31 ± 0.05 ^e µg/mL | 5.21 ± 0.27 ^e µg/mL | 34.17 ± 1.23 ^c µg/mL | 5.12 ± 0.21 ^e µg/mL | 3.21 ± 0.06 ^d µg/mL | – | – | –
Cc1c(C)c2c(c(C)c1O)CC[C@@](C)(CCC[C@H](C)CCC[C@H](C)CCCC(C)C)O2 [α-Tocopherol] | 34.93 ± 2.38 ^b µg/mL | – | – | – | – | – | 13.02 ± 5.17 ^d µg/mL | – | – | – | ˂3.125 µg/mL
Tannic Acid | 5.39 ± 0.91 ^d µg/mL | – | – | – | – | – | – | – | – | – | <3.125 µg/mL
